Measurements reported in patent US10683293B2, “Optionally fused heterocyclyl-substituted derivatives of pyrimidine useful for the treatment of inflammatory, metabolic, oncologic and autoimmune diseases” (NUEVOLUTION A/S, priority 2014, dated 2020).

Molecular target: T1, human RORγt (Ligand Binding Domain) (Homo sapiens, UniProt P51449)
T1 construct: purchased Crelux (Planegg, Germany) batch no PC5032-1
T1 sequence (P51449 269-508 limits assumed): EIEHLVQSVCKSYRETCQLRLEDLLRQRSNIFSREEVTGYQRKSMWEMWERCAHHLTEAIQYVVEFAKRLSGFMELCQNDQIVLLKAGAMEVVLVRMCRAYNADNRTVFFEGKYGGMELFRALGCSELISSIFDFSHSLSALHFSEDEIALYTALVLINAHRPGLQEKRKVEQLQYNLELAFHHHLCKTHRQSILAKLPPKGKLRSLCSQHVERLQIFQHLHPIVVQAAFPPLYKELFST
Assay: Fluorescence Polarization (FP) Assay
Conditions: 100 nM human RORγt LBD, 25 nM TAMRA probe, values are activity range bounds
Description: The activity of the compounds was evaluated using a Fluorescence Polarization (FP) Assay and, RORγ Reporter assay (also referred to as Gal4 assay). The FP assay is an in vitro assay monitoring binding within the ligand binding pocket. The RORγ and the Th17 assays (another suitable assay) are both cell-based assays monitoring functional activity of the compound assayed.
Fluorescence Polarization (FP) Assay
The total volume was 25 μl, in a black Perkin Elmer OptiPlate. As negative control, 1 μl DMSO was used. […] The probe is a fluorescently labeled (TAMRA) RORγt ligand identified by Nuevolution with a total molecular weight of 910 g/mole as shown in Graph A in FIG. 1.

| IC50 [nM] | SMILES |
| --- | --- |
| < 500 | NC(=O)Cc1ccc(CNc2ncnc(N(Cc3cccc(-c4cccnc4)c3)C3CC3)c2F)cc1 [Example A130, 2-[4-[[[6-[cyclopropyl-[[3-(3-pyridyl)phenyl]methyl]amino]-5-fluoro-pyrimidin-4-yl]amino]methyl]phenyl]acetamide] |
| < 500 | CC(c1cccc2ccccc12)N(C)c1ncnc(NCc2ccc(CC(N)=O)cc2)c1F (centres unmarked) [Example A131, 2-[4-[[[5-fluoro-6-[methyl-[1-(1-naphthyl)ethyl]amino]pyrimidin-4-yl]amino]methyl]phenyl]acetamide] |
| < 10000 | CN(Cc1ccc(-n2cccn2)cc1)c1ncnc(NCC2(CCO)CCOCC2)c1F [Example A132, 2-[4-[[[5-fluoro-6-[methyl-[(4-pyrazol-1-ylphenyl)methyl]amino]pyrimidin-4-yl]amino]methyl]tetrahydropyran-4-yl]ethanol] |
| < 2000 | CN(Cc1ccc(-n2cccn2)cc1)c1ncnc(NCC2(CS(C)(=O)=O)CCOCC2)c1F [Example A133, 5-fluoro-N6-methyl-N4-[[4-(methylsulfonylmethyl)tetrahydro-pyran-4-yl]methyl]-N6-[(4-pyrazol-1-ylphenyl)methyl]pyrimidine-4,6-diamine] |
| < 2000 | CN(Cc1ccc(-n2cccn2)cc1)c1ncnc(NCc2ccc(-c3nnn[nH]3)cc2)c1F [Example A134, 5-fluoro-N6-methyl-N6-[(4-pyrazol-1-ylphenyl)methyl]-N4-[[4-(1H-tetrazol-5-yl)phenyl]methyl]pyrimidine-4,6-diamine] |
| < 10000 | CN(Cc1ccc(-n2cccn2)cc1)c1ncnc(NCc2ccc(S(N)(=O)=O)cc2)c1F [Example A135, 4-[[[5-fluoro-6-[methyl-[(4-pyrazol-1-ylphenyl)methyl]amino]pyrimidin-4-yl]amino]methyl]benzenesulfonamide] |
| < 2000 | COCCNS(=O)(=O)c1ccc(CNc2ncnc(N(C)Cc3ccc(-n4cccn4)cc3)c2F)cc1 [Example A136, 4-[[[5-fluoro-6-[methyl-[(4-pyrazol-1-ylphenyl)methyl]amino]pyrimidin-4-yl]amino]methyl]-N-(2-methoxyethyl)benzenesulfonamide] |
| < 500 | CN(Cc1ccc(-n2cccn2)cc1)c1ncnc(NCc2ccc(S(=O)(=O)O)cc2)c1F [Example A137, 4-[[[5-fluoro-6-[methyl-[(4-pyrazol-1-ylphenyl)methyl]amino]pyrimidin-4-yl]amino]methyl]benzenesulfonic acid] |
| < 2000 | COc1ccc(CN(C)c2ncnc(NCc3ccc(CC(N)=O)cc3)c2F)c(OC)c1 [Example A139, 2-[4-[[[6-[(2,4-dimethoxyphenyl)methyl-methyl-amino]-5-fluoro-pyrimidin-4-yl]amino]methyl]phenyl]acetamide] |
| < 10000 | CN(Cc1cccc(-n2cccn2)c1)c1ncnc(NCC2(O)CCS(=O)(=O)CC2)c1F [Example A140, 4-[[[5-fluoro-6-[methyl-[(3-pyrazol-1-ylphenyl)methyl]amino]pyrimidin-4-yl]amino]methyl]-1,1-dioxo-thian-4-ol] |
| < 2000 | CN(Cc1cccc(-n2cccn2)c1)c1ncnc(NCC2CCOCC2)c1F [Example A141, 5-fluoro-N6-methyl-N6-[(3-pyrazol-1-ylphenyl)methyl]-N4-(tetrahydropyran-4-ylmethyl)pyrimidine-4,6-diamine] |
| < 10000 | CN(Cc1cccc(-n2cccn2)c1)c1ncnc(NCc2ccc(CS(C)(=O)=O)cc2)c1F [Example A144, 5-fluoro-N6-methyl-N4-[[4-(methylsulfonylmethyl)phenyl]methyl]-N6-[(3-pyrazol-1-ylphenyl)methyl]pyrimidine-4,6-diamine] |
| < 10000 | CN1CCC(NC(=O)CC2(CNc3ncnc(N(Cc4ccc(C(F)(F)F)cc4)C4CC4)c3F)CCOCC2)C1 (centres unmarked) [Example A152, 2-[4-[[[6-[cyclopropyl-[[4-(trifluoromethyl)phenyl]methyl]amino]-5-fluoro-pyrimidin-4-yl]amino]methyl]tetrahydropyran-4-yl]-N-(1-methylpyrrolidin-3-yl)acetamide] |
| < 10000 | CN(C)CCCNC(=O)CC1(CNc2ncnc(N(Cc3ccc(C(F)(F)F)cc3)C3CC3)c2F)CCOCC1 [Example A153, 2-[4-[[[6-[cyclopropyl-[[4-(trifluoromethyl)phenyl]methyl]amino]-5-fluoro-pyrimidin-4-yl]amino]methyl]tetrahydropyran-4-yl]-N-[3-(dimethylamino)propyl]acetamide] |
| < 2000 | O=C(O)CNC(=O)CC1(CNc2ncnc(N(Cc3ccc(C(F)(F)F)cc3)C3CC3)c2F)CCOCC1 [Example A154, 2-[[2-[4-[[[6-[cyclopropyl-[[4-(trifluoromethyl)phenyl]methyl]amino]-5-fluoro-pyrimidin-4-yl]amino]methyl]tetrahydropyran-4-yl]acetyl]amino]acetic acid] |
| < 1000 | O=C(O)CCNC(=O)CC1(CNc2ncnc(N(Cc3ccc(C(F)(F)F)cc3)C3CC3)c2F)CCOCC1 [Example A155, 3-[[2-[4-[[[6-[cyclopropyl-[[4-(trifluoromethyl)phenyl]methyl]amino]-5-fluoro-pyrimidin-4-yl]amino]methyl]tetrahydropyran-4-yl]acetyl]amino]propanoic acid] |
| < 500 | COc1cc(CN(c2ncnc(NCc3ccc(CC(N)=O)cc3)c2F)C2CC2)ccc1Cl [Example A156, 2-[4-[[[6-[(4-chloro-3-methoxy-phenyl)methyl-cyclopropyl-amino]-5-fluoro-pyrimidin-4-yl]amino]methyl]phenyl]acetamide] |
| < 500 | Cc1ccc(CNc2ncnc(N(Cc3ccc(C(F)(F)F)cc3)C3CC3)c2F)nn1 [Example A157, N4-cyclopropyl-5-fluoro-N6-[(6-methylpyridazin-3-yl)methyl]-N4-[[4-(trifluoromethyl)phenyl]methyl] pyrimidine-4,6-diamine] |
| < 500 | CS(=O)(=O)N1CCC(CNc2ncnc(N(Cc3ccc(C(F)(F)F)cc3)C3CC3)c2F)C1 (centres unmarked) [Example A158, N4-cyclopropyl-5-fluoro-N6-[(1-methylsulfonylpyrrolidin-3-yl)methyl]-N4-[[4-(trifluoromethyl)phenyl]methyl] pyrimidine-4,6-diamine] |
| < 500 | Cc1cnc(CNc2ncnc(N(Cc3ccc(C(F)(F)F)cc3)C3CC3)c2F)cn1 [Example A159, N4-cyclopropyl-5-fluoro-N6-[(5-methylpyrazin-2-yl)methyl]-N4-[[4-(trifluoromethyl)phenyl]methyl] pyrimidine-4,6-diamine] |
| < 500 | CS(=O)(=O)N1CC(CNc2ncnc(N(Cc3ccc(C(F)(F)F)cc3)C3CC3)c2F)C1 [Example A160, N4-cyclopropyl-5-fluoro-N6-[(1-methylsulfonylazetidin-3-yl)methyl]-N4-[[4-(trifluoromethyl)phenyl]methyl] pyrimidine-4,6-diamine] |
| < 500 | NC(=O)Cc1ccc(CNc2ncnc(N(Cc3cccc(-n4cncn4)c3)C3CC3)c2F)cc1 [Example A161, 2-[4-[[[6-[cyclopropyl-[[3-(1,2,4-triazol-1-yl)phenyl]methyl]amino]-5-fluoro-pyrimidin-4-yl]amino]methyl]phenyl]acetamide] |
| < 500 | NC(=O)Cc1ccc(CNc2ncnc(N(Cc3ccc4c(c3)OCC(=O)N4)C3CC3)c2F)cc1 [Example A162, 2-[4-[[[6-[cyclopropyl-[(3-oxo-4H-1,4-benzoxazin-7-yl)methyl]amino]-5-fluoro-pyrimidin-4-yl]amino]methyl]phenyl]acetamide] |
| < 500 | N#Cc1cccc(CN(c2ncnc(NCc3ccc(CC(N)=O)cc3)c2F)C2CC2)c1 [Example A163, 2-[4-[[[6-[(3-cyanophenyl)methyl-cyclopropyl-amino]-5-fluoro-pyrimidin-4-yl]amino]methyl]phenyl]acetamide] |
| < 10000 | CS(=O)(=O)N1CCC(CNc2ncnc(N(Cc3ccc(C(F)(F)F)cn3)C3CC3)c2F)C1 (centres unmarked) [Example A166, N6-cyclopropyl-5-fluoro-N4-[(1-methylsulfonylpyrrolidin-3-yl)methyl]-N6-[[5-(trifluoromethyl)-2-pyridyl]methyl]pyrimidine-4,6-diamine] |
| < 10000 | CS(=O)(=O)N1CC(CNc2ncnc(N(Cc3ccc(C(F)(F)F)cn3)C3CC3)c2F)C1 [Example A173, N4-cyclopropyl-5-fluoro-N6-[(1-methylsulfonylazetidin-3-yl)methyl]-N4-[[5-(trifluoromethyl)-2-pyridyl]methyl]pyrimidine-4,6-diamine] |
| < 2000 | NC(=O)Cc1ccc(CNc2ncnc(N(Cc3ccc(C(F)(F)F)cc3)C3CC3)c2F)nc1 [Example A177, 2-[6-[[[6-[cyclopropyl-[[4-(trifluoromethyl)phenyl]methyl]amino]-5-fluoro-pyrimidin-4-yl]amino]methyl]-3-pyridyl]acetamide] |
| < 10000 | Cc1cc(CN(c2ncnc(NCC3CCN(S(C)(=O)=O)CC3)c2F)C2CCCCC2)n(C)n1 [Example A180, N6-cyclohexyl-N6-[(2,5-dimethylpyrazol-3-yl)methyl]-5-fluoro-N4-[(1-methylsulfonyl-4-piperidyl)methyl]pyrimidine-4,6-diamine] |
| < 10000 | O=C(O)C[C@H](Nc1ncnc(N(Cc2ccc(C(F)(F)F)cc2)C2CC2)c1F)c1ccccc1 [Example A182, (3S)-3-[[6-[cyclopropyl-[[4-(trifluoromethyl)phenyl]methyl]amino]-5-fluoro-pyrimidin-4-yl]amino]-3-phenyl-propanoic acid] |
